Molecular target: human RIP1 kinase domain (2-375) (Homo sapiens (Human), UniProt Q13546)
Assay: RIP1 kinase inhibition biochemical assay (Transcreener ADP, fluorescence polarization)
Conditions: Ki app from tight-binding Morrison equation; 50 nM enzyme, 50 uM ATP, 2 hours incubation
Procedure: RIP1 Kinase Inhibition Assays (Biochemical Assay)
The compounds of the present invention were tested for their capacity to inhibit RIP1K activity as described below.
The ability of the receptor interacting protein kinase (RIPK1) to catalyze the hydrolysis of adenosine-5′-triphosphate (ATP) is monitored using the Transcreener ADP (adenosine-5′-diphosphate) assay (BellBrook Labs). Purified human RIP1 kinase domain (2-375) (50 nM) derived from a baculovirus-infected insect cell expression system is incubated with test compounds for 2 hours in 50 mM Hepes buffer (pH 7.5) containing 30 mM MgCl2, 1 mM dithiothreitol, 50 uM ATP, 0.002% Brij-35, and 0.5% dimethyl sulfoxide (DMSO). Reactions are quenched by the addition of 1× Bell Brooks Stop buffer B (20 mM Hepes (ph7.5), 40 mM ethylenediaminetetraacetic acid and 0.02% Brij-35) containing an additional 12 mM EDTA and 55 ug/mL ADP2 antibody and 4 nM ADP-AlexaFluor® 633 tracer. The tracer bound to the antibody is displaced by the ADP generated during the RIP1K reaction, which causes a decrease in fluorescence polarization that is measured by laser excitation at 633 nm with a FP microplate reader M1000. Fractional activity was plotted against test article concentration. Using Genedata Screener software (Genedata; Basel, Switzerland), the data were fit to the tight-binding apparent inhibition constant (Ki^app) Morrison equation [Williams, J. W. and Morrison, J. F. (1979) The kinetics of reversible tight-binding inhibition. Methods Enzymol 63: 437-67]. The following equation was used to calculate fractional activity and Ki^app:
[formula] where [E]T and [I]T are the total concentrations of active enzyme and test article, respectively.
Exemplary compounds of the present invention are provided in Table 1 along with their physiochemical characterization and in vitro RIP1 kinase inhibitory activity data. “Method” in the first column of each table refers to the synthetic method(s) used to prepare each compound as shown in the Examples above. In certain examples, chiral column retention times (min) are provided for certain stereoisomers. Unless otherwise specified, the stereochemistry shown in each structure represents relative configuration of a single stereoisomer, and absolute configuration (i.e., “R” and/or “S”) is arbitrarily assigned. In some embodiments, where the Method is described to include the separation of stereoisomers, a single stereoisomer of a compound of Table 1 is provided.

Chain of human RIP1 kinase domain (2-375) (Q13546 2-375): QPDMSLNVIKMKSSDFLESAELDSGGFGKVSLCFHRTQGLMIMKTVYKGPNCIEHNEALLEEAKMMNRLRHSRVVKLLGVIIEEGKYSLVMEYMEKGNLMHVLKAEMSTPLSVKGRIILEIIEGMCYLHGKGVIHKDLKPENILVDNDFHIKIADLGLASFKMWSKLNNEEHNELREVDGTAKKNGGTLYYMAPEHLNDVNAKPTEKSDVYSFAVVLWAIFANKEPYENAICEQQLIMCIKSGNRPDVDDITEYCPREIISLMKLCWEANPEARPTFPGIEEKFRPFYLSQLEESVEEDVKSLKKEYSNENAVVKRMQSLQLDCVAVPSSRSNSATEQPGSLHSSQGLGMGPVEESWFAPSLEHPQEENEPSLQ

Ki | Structure (SMILES)
10 nM | O=S(=O)(c1nc2n(n1)[C@H](c1ccccc1F)C[C@@H]2F)C1CC1F (stereo in doubt) [Example 206, (5S,7S)-7-fluoro-5-(2-fluorophenyl)-2-[(1R,2R)-2-fluorocyclopropyl]sulfonyl-6,7-dihydro-5H-pyrrolo[1,2-b][1,2,4]triazole]
15 nM | O=S(=O)(Cc1ccccc1)c1nc2n(n1)[C@H](c1ccccc1)C[C@@H]2F (single isomer, unassigned) [Example 19]
48 nM | O=S(=O)(c1nc2n(n1)[C@H](c1cc(F)cc(Cl)c1)C[C@@H]2F)C1CC1F (stereo in doubt) [Example 200, (5S,7S)-5-(3-chloro-5-fluoro-phenyl)-7-fluoro-2-[(1R,2R)-2-fluorocyclopropyl]sulfonyl-6,7-dihydro-5H-pyrrolo[1,2-b][1,2,4]triazole]
13 nM | CC(F)S(=O)(=O)c1nc2n(n1)[C@H](c1ccccc1)C[C@@H]2F (stereo partly drawn) [Example 158, (5S,7S)-7-fluoro-2-(1-fluoroethylsulfonyl)-5-phenyl-6,7-dihydro-5H-pyrrolo[1,2-b][1,2,4]triazole]
6 nM | O=S(=O)(c1nc2n(n1)[C@H](c1cc(F)ccc1F)C[C@@H]2F)[C@@H]1CC1(F)F (single isomer, unassigned) [Example 127]
24 nM | [O-][S+](Cc1ccccc1)c1nc2n(n1)[C@H](c1ccccc1)C[C@@H]2F (stereo partly drawn) [Example 20, (5S,7S)-2-benzylsulfinyl-7-fluoro-5-phenyl-6,7-dihydro-5H-pyrrolo[1,2-b][1,2,4]triazole]
8 nM | CC(C)[S@@+]([O-])c1nc2n(n1)[C@H](c1ccccc1)C[C@@H]2F (single isomer, unassigned) [Example 187]
< 5 nM | [O-][S@@+](CF)c1nc2n(n1)[C@H](c1cc(F)cc(F)c1)C[C@@H]2F (single isomer, unassigned) [Example 84]
< 5 nM | O=S(=O)(c1nc2n(n1)[C@H](c1cccc(F)c1F)C[C@@H]2F)C1CC1F (stereo in doubt) [Example 216, (5S,7S)-5-(2,3-difluorophenyl)-7-fluoro-2-[(1S,2S)-2-fluorocyclopropyl]sulfonyl-6,7-dihydro-5H-pyrrolo[1,2-b][1,2,4]triazole]
6 nM | O=S(=O)(c1nc2n(n1)[C@H](c1cccc(F)c1F)C[C@@H]2F)[C@H]1C[C@@H]1F (single isomer, unassigned) [Example 217]
5 nM | O=S(=O)(c1nc2n(n1)[C@H](c1c(F)cccc1F)C[C@@H]2F)C(F)(F)F (single isomer, unassigned) [Example 139]
89 nM | [O-][S@@+](c1nc2n(n1)[C@H](c1ccccc1)C[C@@H]2F)C1CC1 [Example 28, (5S,7S)-2-[(R)-cyclopropylsulfinyl]-7-fluoro-5-phenyl-6,7-dihydro-5H-pyrrolo[1,2-b][1,2,4]triazole]
21 nM | CC1(S(=O)(=O)c2nc3n(n2)[C@H](c2ccccc2)C[C@@H]3F)CC1 (single isomer, unassigned) [Example 150]
17 nM | O=S(=O)(c1nc2n(n1)[C@H](c1ccccc1)C[C@@H]2F)C1CC(F)(F)C1 (single isomer, unassigned) [Example 50]
50 nM | [O-][S@@+](c1nc2n(n1)[C@H](c1ccccc1Cl)CC2)C(F)F [Example 17, (5S)-5-(2-chlorophenyl)-2-[(S)-difluoromethylsulfinyl]-6,7-dihydro-5H-pyrrolo[1,2-b][1,2,4]triazole]
< 5 nM | O=S(=O)(c1nc2n(n1)[C@H](c1ccccc1Cl)C[C@@H]2F)[C@H]1CC1(F)F (single isomer, unassigned) [Example 120]
1600 nM | O=S(=O)(c1nc2n(n1)[C@@H](c1ccccc1Cl)CC2)C(F)F [Example 15, (5R)-5-(2-chlorophenyl)-2-(difluoromethylsulfonyl)-6,7-dihydro-5H-pyrrolo[1,2-b][1,2,4]triazole]
21 nM | O=S(=O)(c1nc2n(n1)[C@H](c1ccc(F)c(F)c1)C[C@@H]2F)C1CC1 (single isomer, unassigned) [Example 44]
18 nM | O=S(=O)(c1nc2n(n1)[C@H](c1cccc(Cl)c1F)C[C@@H]2F)C(F)F (single isomer, unassigned) [Example 65]
110 nM | [O-][S+](c1nc2n(n1)C(c1cc(F)cc(F)c1)CC2)C(F)F (centres unmarked) [Example 176, 2-(Difluoromethylsulfinyl)-5-(3,5-difluorophenyl)-6,7-dihydro-5H-pyrrolo[1,2-b][1,2,4]triazole]
270 nM | O=S(=O)(c1nc2n(n1)[C@H](c1ccccc1)C[C@@H]2F)C(F)(F)CO (single isomer, unassigned) [Example 156]

Ki | Structure (SMILES)
< 5 nM | O=S(=O)(c1nc2n(n1)[C@H](c1cccc(F)c1Cl)C[C@@H]2F)C1CC1 (single isomer, unassigned) [Example 45]
4 nM | [O-][S@+](c1nc2n(n1)[C@H](c1ccccc1)C[C@@H]2F)C1CC1 [Example 29, (5S,7S)-2-[(S)-cyclopropylsulfinyl]-7-fluoro-5-phenyl-6,7-dihydro-5H-pyrrolo[1,2-b][1,2,4]triazole]
7 nM | [O-][S+](CC(F)F)c1nc2n(n1)[C@H](c1ccccc1)C[C@@H]2F (stereo partly drawn) [Example 148, (5S,7S)-2-(2,2-difluoroethylsulfinyl)-7-fluoro-5-phenyl-6,7-dihydro-5H-pyrrolo[1,2-b][1,2,4]triazole]
32 nM | O=S(=O)(c1nc2n(n1)[C@H](c1ccc(F)cc1)C[C@@H]2F)C1CC1F (stereo in doubt) [Example 196, (5S,7S)-7-fluoro-5-(4-fluorophenyl)-2-[(1S,2S)-2-fluorocyclopropyl]sulfonyl-6,7-dihydro-5H-pyrrolo[1,2-b][1,2,4]triazole]
3 nM | O=S(=O)(c1nc2n(n1)[C@H](c1ccccc1Cl)C[C@@H]2F)C(F)(F)F (single isomer, unassigned) [Example 134]
290 nM | CCS(=O)(=O)c1nc2n(n1)[C@H](c1ccccc1F)CC2 (single isomer, unassigned) [Example 8]
47 nM | N#CC[S@+]([O-])c1nc2n(n1)[C@@H](c1ccccc1Cl)C[C@H]2F (single isomer, unassigned) [Example 101]
< 5 nM | O=S(=O)(c1nc2n(n1)[C@H](c1ccccc1F)C[C@@H]2F)[C@@H]1CC1(F)F (single isomer, unassigned) [Example 124]
< 5 nM | O=S(=O)(c1nc2n(n1)[C@H](c1cc(F)cc(F)c1)C[C@@H]2F)C1CC1 (single isomer, unassigned) [Example 42]
9.3 nM | O=S(=O)(c1nc2n(n1)[C@H](c1cccc(F)c1)C[C@@H]2F)[C@H]1C[C@H](F)C1 (single isomer, unassigned) [Example 226]
31 nM | O=S(=O)(c1nc2n(n1)[C@H](c1ccc(F)c(F)c1)C[C@@H]2F)[C@H]1C[C@@H]1F (single isomer, unassigned) [Example 143]
55 nM | N#C[C@H]1C[C@@H](S(=O)(=O)c2nc3n(n2)[C@H](c2ccccc2)C[C@@H]3F)C1 [Example 210, Cis-3-[[(5S,7S)-7-fluoro-5-phenyl-6,7-dihydro-5H-pyrrolo[1,2-b][1,2,4]triazol-2-yl]sulfonyl]cyclobutanecarbonitrile]
760 nM | CC(C)[S@+]([O-])c1nc2n(n1)[C@H](c1ccccc1)C[C@@H]2F (single isomer, unassigned) [Example 189]
5 nM | O=S(=O)(c1nc2n(n1)[C@H](c1ccccc1)C[C@@H]2F)C(F)F (single isomer, unassigned) [Example 23]
8 nM | N#CCS(=O)(=O)c1cc2n(n1)[C@H](c1ccccc1)C[C@@H]2F (single isomer, unassigned) [Example 90]
22 nM | CS(=O)(=O)c1nc2n(n1)[C@H](c1ccccc1)C[C@@H]2F (single isomer, unassigned) [Example 106]
150 nM | CC(C)(C#N)[S+]([O-])c1nc2n(n1)[C@H](c1ccccc1)C[C@@H]2F (stereo partly drawn) [Example 103, 2-[[(5S,7S)-7-fluoro-5-phenyl-6,7-dihydro-5H-pyrrolo[1,2-b][1,2,4]triazol-2-yl]sulfinyl]-2-methyl-propanenitrile]
58 nM | [O-][S+](c1nc2n(n1)C(c1ccccc1)CC2)C(F)F (centres unmarked) [Example 1, 2-(difluoromethylsulfinyl)-5-phenyl-6,7-dihydro-5H-pyrrolo[1,2-b][1,2,4]triazole]
190 nM | N#CC[S@+]([O-])c1nc2n(n1)[C@H](c1ccccc1F)C[C@@H]2F (single isomer, unassigned) [Example 95]
19 nM | [O-][S@+](CC(F)(F)F)c1nc2n(n1)[C@H](c1ccccc1)C[C@@H]2F (single isomer, unassigned) [Example 185]

— patent US11072617B2, “Bicyclic sulfones and sulfoxides and methods of use thereof” (Genentech, Inc., priority 2017, dated 2021)
